From the NIST ThermoML archive (doi:10.1016/j.jct.2012.09.018)

Assay: mn = molality of the nth substance listed, in mol/kg
Settings: 101 kPa, Liquid, Pycnometric method

CC(C)C[C@H](NC(=O)CN)C(=O)O [glycyl-L-leucine] + O
293.15 K
Settings	mass density [kg/m3]
m1 = 0.01984	999.17
m1 = 0.02628	999.49
m1 = 0.03301	999.83
m1 = 0.03973	1000.15
m1 = 0.04936	1000.61
m1 = 0.05894	1001.06
m1 = 0.06889	1001.56
m1 = 0.07838	1002.04
m1 = 0.08821	1002.51

CC(C)[C@H](NC(=O)CN)C(=O)O [glycyl-L-valine] + O
293.15 K
Settings	mass density [kg/m3]
m1 = 0.01993	999.24
m1 = 0.04051	1000.32
m1 = 0.06065	1001.37
m1 = 0.08097	1002.43
m1 = 0.1005	1003.46
m1 = 0.1203	1004.51
m1 = 0.1403	1005.53
m1 = 0.1594	1006.55
m1 = 0.1799	1007.62
m1 = 0.1995	1008.64

NCC(=O)NCC(=O)O [glycylglycine] + O
293.15 K
Settings	mass density [kg/m3]
m1 = 0.02014	999.33
m1 = 0.04077	1000.49
m1 = 0.06148	1001.64
m1 = 0.09135	1003.33
m1 = 0.1226	1005.06
m1 = 0.1538	1006.84
m1 = 0.1823	1008.4
m1 = 0.2128	1010.11
m1 = 0.2534	1012.46

O=C([O-])C(F)(F)C(F)(F)C(F)(F)C(F)(F)C(F)(F)C(F)(F)C(F)(F)F.[Na+] [sodium perfluorooctanoate] + O
m1 = 0.04
Settings	mass density [kg/m3]
293.15 K	1007.53
298.15 K	1006.24
303.15 K	1004.73
308.15 K	1003.15
